Assay results from US9615577B2, “Herbicidally active cyclic dione compounds, or derivatives therefor, substituted by a phenyl which has an alkynyl-containing substituent” (Syngenta Limited, priority 2012, dated 2017).

What was measured:
Type in all cases: in vivo
[1] = tested on: Brassica napus (BRSNN, rape); assay: Test 1B glasshouse assay for herbicidal activity, pre-emergence; conditions: 480 h, 20 DAA, read-out: percentage phytotoxicity BRSNN
Procedure: (§1) Seeds of a variety of monocotyledonous and dicotyledonous test plants are sown in standard soil in pots. The plants are cultivated for one day (for pre-emergence) or for about 12 days (range=10-13 days) (for post-emergence) under controlled conditions in a glasshouse (warm climate species at 24/18° C., cool climate species at 20/16° C., both at day/night; 16 hours light; 65% humidity).
(§2) An “instant formulation”, known as the “IF50”, containing 50 g/liter (i.e. 5% w/v) of the “technical” (i.e. unformulated) active ingredient is prepared by dissolving the active ingredient in a mixture of organic solvents and emulsifier, details of which are provided in the Table below. This IF50 is then mixed with a small, variable amount of acetone to aid dissolution, before addition of a 0.2% v/v aqueous solution of the adjuvant X-77 (which is a mixture of alkyl aryl polyoxyethylene glycols and free fatty acids in isopropanol, CAS Registry number 11097-66-8), as the aqueous diluent, to form an aqueous spray solution which contains a predetermined concentration of the active ingredient (which varies depending on the application rate of the active ingredient to the plants) and 0.2% v/v of the adjuvant X-77. This aqueous spray solution is then sprayed onto the plants, after one day's cultivation (for pre-emergence) or after about 12 days' cultivation (for post-emergence).
(§3) The test plants are then grown on, in a glasshouse (greenhouse) under controlled conditions (at either 24/18° C. or 20/16° C. (day/night) as mentioned above; 16 hours light; 65% humidity) and are watered twice daily. Either 15 days after application of the herbicide (15 DAA) (for post-emergence), or 20 days after application of the herbicide (20 DAA) (for pre-emergence), the test plants are evaluated visually, and an assessed percentage phytotoxicity score is given for each herbicidal application on each plant species (where 100%=total damage to plant; 0%=no damage to plant).
(§4) Cool climate crop plants: Triticum aestivum (TRZAW, winter wheat), Brassica napus (BRSNN, rape, also called oilseed rape or rapeseed), Beta vulgaris (BEAVA, sugar beet).

[2] = tested on: Triticum aestivum (TRZAW, winter wheat); assay: as above; conditions: 480 h, 20 DAA, read-out: percentage phytotoxicity TRZAW
Procedure: as §1, §2, §3, §4

[3] = tested on: Beta vulgaris (BEAVA, sugar beet); assay: as above; conditions: 480 h, 20 DAA, read-out: percentage phytotoxicity BEAVA
Procedure: as §1, §2, §3, §4

[4] = tested on: Alopecurus myosuroides (ALOMY); assay: Test 1A glasshouse assay for herbicidal activity, post-emergence; conditions: 312 h, evaluated after 13 days, read-out: percentage phytotoxicity ALOMY
In short: (§5)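 Visual % phytotoxicity (0 = no damage, 100 = total damage) scored 13 d after spraying. Pots sown in standard soil; spray applied 1 d post-sowing for pre-emergence, 8 d for post-emergence. Vehicle acetone/water 50:50 + 0.5% Tween 20; glasshouse 24/16 °C, 14 h light, 65% RH, watered twice daily.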

[5] = tested on: Amaranthus retroflexus (AMARE); assay: as above; conditions: 312 h, evaluated after 13 days, read-out: percentage phytotoxicity AMARE
In short: as §5

[6] = tested on: Echinochloa crus-galli (ECHCG); assay: as above; conditions: 312 h, evaluated after 13 days, read-out: percentage phytotoxicity ECHCG
In short: as §5

[7] = tested on: Setaria faberi (SETFA); assay: as above; conditions: 312 h, evaluated after 13 days, read-out: percentage phytotoxicity SETFA
In short: as §5

[8] = tested on: Digitaria sanguinalis (DIGSA); assay: Test 1B glasshouse assay for herbicidal activity, post-emergence; conditions: 360 h; for pest or weed control at 30 g/ha: 30 g/ha application rate; for pest or weed control at 60 g/ha: 60 g/ha application rate
Procedure: as §1, §2, §3
(§6) Warm climate (“warm season”) grassy monocotyledonous weeds: Setaria faberi (SETFA), SORVU (Sorghum bicolor (L.) Moench ssp. Bicolor, or Sorghum vulgare Pers.), Digitaria sanguinalis (DIGSA), Echinochloa crus-galli (ECHCG), and Brachiaria plantaginea (BRAPL).

[9] = tested on: Setaria faberi (SETFA); assay: as above; conditions: 360 h; for pest or weed control at 30 g/ha: 30 g/ha application rate; for pest or weed control at 60 g/ha: 60 g/ha application rate
Procedure: as §1, §2, §3, §6

[10] = tested on: Glycine max (GLXMA, soybean); assay: as above; conditions: 360 h; for plant injury at 30 g/ha: 30 g/ha application rate; for plant injury at 60 g/ha: 60 g/ha application rate
Procedure: as §1, §2, §3
(§7) Warm climate crop plants: Glycine max (GLXMA, soybean).

[11] = tested on: Alopecurus myosuroides (ALOMY); assay: Test 1B glasshouse assay for herbicidal activity, pre-emergence; conditions: 480 h, 20 DAA, read-out: percentage phytotoxicity ALOMY
Procedure: as §1, §2, §3
(§8) Cool climate (“cool season”) grassy monocotyledonous weeds: Alopecurus myosuroides (ALOMY), Avena fatua (AVEFA), Lolium perenne (LOLPE).

[12] = tested on: Avena fatua (AVEFA); assay: as above; conditions: 480 h, 20 DAA, read-out: percentage phytotoxicity AVEFA
Procedure: as §1, §2, §3, §8

[13] = tested on: Lolium perenne (LOLPE); assay: as above; conditions: 480 h, 20 DAA, read-out: percentage phytotoxicity LOLPE
Procedure: as §1, §2, §3, §8

[14] = tested on: Glycine max (GLXMA, soybean); assay: as above; conditions: 480 h, 20 DAA, read-out: percentage phytotoxicity GLXMA
Procedure: as §1, §2, §3, §7

[15] = tested on: Brassica napus (BRSNN, rape); assay: Test 1B glasshouse assay for herbicidal activity, post-emergence; conditions: 360 h; for plant injury at 30 g/ha: 30 g/ha application rate; for plant injury at 60 g/ha: 60 g/ha application rate
Procedure: as §1, §2, §3, §4

[16] = tested on: Triticum aestivum (TRZAW, winter wheat); assay: as above; conditions: 360 h; for plant injury at 60 g/ha: 60 g/ha application rate
Procedure: as §1, §2, §3, §4

[17] = tested on: Beta vulgaris (BEAVA, sugar beet); assay: as above; conditions: 360 h; for plant injury at 30 g/ha: 30 g/ha application rate; for plant injury at 60 g/ha: 60 g/ha application rate
Procedure: as §1, §2, §3, §4

**Q.** For `CC#Cc1cc(C)c(C2C(=O)C3CCC(C3)C2=O)c(C)c1` (centres unmarked) [Compound A-5], which plant injury at 500 g/ha ([1]; 500 g/ha) is on record?
**A.** 90%

**Q.** And the plant injury at 500 g/ha ([2]; 500 g/ha)?
**A.** 20%

**Q.** What about the plant injury at 500 g/ha ([3]; 500 g/ha) of the same compound?
**A.** 0%

**Q.** And the pest or weed control at 30 g/ha ([4]; 30 g/ha)?
**A.** 80%

**Q.** What about the pest or weed control at 250 g/ha [4] of the same compound?
**A.** 100%

**Q.** And the pest or weed control at 30 g/ha ([5]; 30 g/ha)?
**A.** 10%

**Q.** And the pest or weed control at 250 g/ha [5]?
**A.** 0%

**Q.** And the pest or weed control at 30 g/ha ([6]; 30 g/ha)?
**A.** 100%

**Q.** And the pest or weed control at 250 g/ha [6]?
**A.** 100%

**Q.** What about the pest or weed control at 30 g/ha ([7]; 30 g/ha) of the same compound?
**A.** 70%

**Q.** What about the pest or weed control at 250 g/ha [7] of the same compound?
**A.** 100%

**Q.** What about the pest or weed control at 30 g/ha [8] of the same compound?
**A.** 90%

**Q.** And the pest or weed control at 60 g/ha [8]?
**A.** 100%

**Q.** And the pest or weed control at 125 g/ha ([8]; 125 g/ha application rate)?
**A.** 100%

**Q.** What about the pest or weed control at 500 g/ha ([8]; 500 g/ha application rate) of the same compound?
**A.** 100%

**Q.** And the pest or weed control at 30 g/ha [9]?
**A.** 80%

**Q.** What about the pest or weed control at 60 g/ha [9] of the same compound?
**A.** 90%

**Q.** And the pest or weed control at 125 g/ha ([9]; 125 g/ha application rate)?
**A.** 100%

**Q.** What about the pest or weed control at 500 g/ha ([9]; 500 g/ha application rate) of the same compound?
**A.** 100%

**Q.** What about the plant injury at 30 g/ha [10] of the same compound?
**A.** 10%

**Q.** And the plant injury at 60 g/ha [10]?
**A.** 20%

**Q.** What about the plant injury at 125 g/ha ([10]; 125 g/ha application rate) of the same compound?
**A.** 30%

**Q.** And the plant injury at 500 g/ha ([10]; 500 g/ha application rate)?
**A.** 40%

**Q.** What about the pest or weed control at 500 g/ha ([11]; 500 g/ha) of the same compound?
**A.** 80%

**Q.** What about the pest or weed control at 500 g/ha ([12]; 500 g/ha) of the same compound?
**A.** 40%

**Q.** What about the pest or weed control at 500 g/ha ([13]; 500 g/ha) of the same compound?
**A.** 100%

**Q.** And the plant injury at 500 g/ha ([14]; 500 g/ha)?
**A.** 0%

**Q.** And the plant injury at 30 g/ha [15]?
**A.** 70%

**Q.** And the plant injury at 60 g/ha [15]?
**A.** 70%

**Q.** And the plant injury at 125 g/ha ([15]; 125 g/ha application rate)?
**A.** 80%

**Q.** And the plant injury at 500 g/ha ([15]; 500 g/ha application rate)?
**A.** 80%

**Q.** And the plant injury at 30 g/ha ([16]; 30 g/ha application rate)?
**A.** 30%

**Q.** What about the plant injury at 60 g/ha [16] of the same compound?
**A.** 30%

**Q.** And the plant injury at 125 g/ha ([16]; 125 g/ha application rate)?
**A.** 70%

**Q.** What about the plant injury at 500 g/ha ([16]; 500 g/ha application rate) of the same compound?
**A.** 80%

**Q.** What about the plant injury at 30 g/ha [17] of the same compound?
**A.** 40%

**Q.** And the plant injury at 60 g/ha [17]?
**A.** 40%

**Q.** And the plant injury at 125 g/ha ([17]; 125 g/ha application rate)?
**A.** 30%

**Q.** And the plant injury at 500 g/ha ([17]; 500 g/ha application rate)?
**A.** 30%

**Q.** Which results are given for `Cc1cc(C#CCl)cc(C)c1C1C(=O)C2CCC(C2)C1=O` (centres unmarked) [Compound A-6]?
**A.** plant injury at 125 g/ha ([1]; 125 g/ha): 70%; plant injury at 125 g/ha ([2]; 125 g/ha): 10%; plant injury at 125 g/ha ([3]; 125 g/ha): 0%; pest or weed control at 62.5 g/ha ([4]; 62.5 g/ha): 70%; pest or weed control at 250 g/ha [4]: 70%; pest or weed control at 62.5 g/ha ([5]; 62.5 g/ha): 10%; pest or weed control at 250 g/ha [5]: 0%; pest or weed control at 62.5 g/ha ([6]; 62.5 g/ha): 100%; pest or weed control at 250 g/ha [6]: 100%; pest or weed control at 62.5 g/ha ([7]; 62.5 g/ha): 90%; pest or weed control at 250 g/ha [7]: 90%; pest or weed control at 30 g/ha [8]: 100%; pest or weed control at 60 g/ha [8]: 100%; pest or weed control at 30 g/ha [9]: 100%; pest or weed control at 60 g/ha [9]: 100%; plant injury at 30 g/ha [10]: 0%; plant injury at 60 g/ha [10]: 0%; pest or weed control at 125 g/ha ([11]; 125 g/ha): 60%; pest or weed control at 125 g/ha ([12]; 125 g/ha): 40%; pest or weed control at 125 g/ha ([13]; 125 g/ha): 80%; plant injury at 125 g/ha ([14]; 125 g/ha): 0%; plant injury at 30 g/ha [15]: 40%; plant injury at 60 g/ha [15]: 60%; plant injury at 60 g/ha [16]: 40%; plant injury at 30 g/ha [17]: 40%; plant injury at 60 g/ha [17]: 50%
